Structures can show the parent of a compound that is named as a salt.
Tests used:
[1] = tested on: PKG activity in SW480 colon cancer cells; assay: PKG assay of lysates of drug-treated SW480 cells; type: cell-based, human; details: SW480 treated 48 hrs; exisulind 200, 400, 600 μM; E4021 0.1, 1, 10 μM; with and without added cGMP
Excerpt: That sequence is known and described in the literature below. […] One way to bind the PDE5 sequences to a solid phase is to express those sequences as a fusion protein of the PDE5 sequence and one member of an amino acid binding pair, and chemically link the other member of that amino acid binding pair to a solid phase (e.g., beads). One binding pair that can be used is glutathione S-transferase (“GST”) and glutathione (“GSH”), with the GST being expressed as a fusion protein with the PDE5 sequence described above, and the GSH bound covalently to the solid phase. In this fashion, the PDE5 sequence/GST fusion protein can be bound to a solid phase simply by passing a solution containing the fusion protein over the solid phase, as described below.
To assay a liquid sample believed to contain PKG using the PDE5-bound solid phase described above, the sample and the solid phase are mixed with phosphorylation buffer containing ^32P-γ-ATP. The solution is incubated for 30 minutes at 30° C. to allow for phosphorylation of the PDE5 sequence by PKG to occur, if PKG is present. […]
For each control or drug cell lysate sample to be evaluated, the reaction is started by adding phosphorylation buffer containing 10 μCi ^32P-γ-ATP solution (200 μM ATP, 4.5 mM MgCl; 5 mM KH2PO4; 5 mM K2HPO4;) to each mixture. […]

[2] = tested on: HT-29 colon adenocarcinoma cells; assay: Apoptosis by DNA fragmentation assay in HT-29; type: cell-based, human; details: qualitative activity profile; note: key: −: Not active; +: Slightly active; ++: Moderately active; +++: Strongly active; ++++: Highly active
[3] = tested on: PrEC primary prostate epithelial cell cultures; assay: Histone-associated DNA fragmentation in normal prostate epithelial cells; type: cell-based; details: 50 μM, up to 4 days
Protocol: The androgen-sensitive prostate tumor cell line, LNCaP (from ATCC (Rockville, Md.)) was propogated under standard conditions using […] medium containing 5% fetal calve serum and 2 mM glutamine. Primary prostate epithelial cell cultures (PrEC) derived from normal prostate (from Clonetics Inc. (San Diego, Calif.)) were grown under the same conditions as the tumor cell line except a serum-free medium optimized for the growth of such cultures was used (Clonetics Inc). For the experiments, LNCaP or PrEC cells were seeded in 96 well plates at a density of 10,000 cells per well. After 24 hours, the cells were treated with either vehicle (0.1% DMSO) or 50 μM Compound I (free base) solubilized in DMSO. After various drug treatment times (4, 24, 48, 72, or 99 hours) the cells were lysed and processed for measurement of histone-associated DNA as an indicator of apoptotic cell death (see, Piazza et al., Cancer Research 57: 2452-2459, 1997).
This is in marked contrast to conventional chemotherapeutics that induce apoptosis or necrosis in rapidly growing normal and neoplastic cells alike.

Molt-4 = assay: Growth inhibition, neutral red assay, Molt-4; type: cell-based; details: Homo sapiens, HCl salt
Protocol: Compound I's activity is not confined to activity against colon cancer cell lines or animal models of colon cancer. It has a broad range of anti-neoplastic effects in various neoplastic cell lines. Various types of human cancer cell lines were propagated under sterile conditions in RPMI 1640 medium with 10% fetal bovine serum, 2 mM L-glutamine and sodium bicarbonate. To determine growth inhibitory effects of Compound I, cells were seeded in 96-well plates at a density of 1000 cells per well. Twenty-four hours after plating, the cells were dosed with various concentrations of the free base of Compound I solubilized in DMSO (final concentration 0.1%). The effect of the drug on tumor cell growth was determined using the neutral red cytotoxicity assay following five days of continuous treatment. Neutral red is a dye that is selectively taken up by viable cells by an ATP-dependent transport mechanism.

[4] = tested on: SW-480 colon adenocarcinoma cells; assay: Apoptosis induction determined by morphology, SW-480; type: cell-based, human
Excerpt: Following treatment with a compound, cultures can be assayed for apoptosis and necrosis by florescent microscopy following labeling with acridine orange and ethidium bromide. The method for measuring apoptotic cell number has previously been described by Duke & Cohen, “Morphological And Biochemical Assays Of Apoptosis,” Current Protocols In Immunology, Coligan et al., eds., 3.17.1-3.17.16 (1992, which is incorporated herein by reference).
For example, floating and attached cells can be collected by trypsinization and washed three times in PBS. Aliquots of cells can be centrifuged. The pellet can then be re-suspended in media and a dye mixture containing acridine orange and ethidium bromide prepared in PBS and mixed gently. The mixture can then be placed on a microscope slide and examined for morphological features of apoptosis.
In addition, the percent apoptosis for Compound I in SW-480 is shown in Table 12 at various drug concentrations.

CC1=C(CC(=O)O)c2cc(F)ccc2/C1=C\c1ccc(S(C)(=O)=O)cc1 [Exisulind, 5-fluoro-2-methyl-1-(p-methylsulfonylbenzylidene)-3-indenylacetic acid]
PKG activity relative to control [1]: causes PKG activity to increase in a dose-dependent manner
Apoptosis [2]: ++

CC1=C(CC(=O)NCc2ccccc2)c2cc(F)ccc2/C1=C\c1ccncc1 [Compound I, (Z)-5-fluoro-2-methyl-(4-pyridylidene)-3-(N-benzyl)indenylacetamide hydrochloride]
DNA fragmentation in PrEC (normal prostate) cells [3]: did not affect DNA fragmentation
GI50 (Molt-4): 1.6 µM
% Apoptosis ([4]; 0.35 μM): 16%
% Apoptosis ([4]; 0.7 μM): 27%
% Apoptosis ([4]; 1.5 μM): 88%
